Test results as given in patent publication US20240216357A1 (SICHUAN HUIYU PHARMACEUTICAL CO., LTD., priority 2021, published 2024).
Structures can show the parent of a compound that is named as a salt. Where two headings read alike, the source gives them in different places.

What was measured:
NCI-H1417 cells = assay: In vitro cell proliferation detection (CellTiter-Glo, 7 days); assay type: cell-based; details: Homo sapiens, 168 h; NCI-H1417 cells, 7 days, CellTiter-Glo; read-out: NCI-H1417 proliferation inhibition IC50
LSD1 = LSD1 (Homo sapiens (Human), UniProt O60341); assay: LSD1 enzyme activity detection (HTRF); assay type: biochemical; details: read-out: Inhibition of enzymatic activity of LSD1 IC50

SMILES	IC50 (NCI-H1417 cells) [nM]	IC50 (LSD1; HTRF, H3K4me1 substrate) [nM]	IC50 (LSD1) [nM]
COc1ccc(-c2c(-c3ccc(C#N)c(F)c3)nc(N3CC4CC(C3)C4N)n3ccnc23)cc1O (centres unmarked) [Example 163, 4-(5-(6-amino-3-azabicyclo[3.1.1]heptan-3-yl)-8-(3-hydroxy-4-methoxyphenyl)imidazolo[1,2-c]pyrimidin-7-yl)-2-fluorobenzonitrile hydrochloride]	9.11	5.6 ± 1.6	
COc1ccc(-c2c(O)cc(N3CCC[C@@H](N)C3)nc2-c2ccc(C#N)c(F)c2)cc1F [Example 31, (R)-4-(6-(3-aminopiperidin-1-yl)-3-(3-fluoro-4-methoxyphenyl)-4-hydroxypyridin-2-yl)-2-fluorobenzonitrile hydrochloride]	77.2	51	
N#Cc1ccc(-c2nc(N3C4CCC3CC(N)C4)n3ccnc3c2-c2cc3nonc3cc2F)cc1F (centres unmarked) [Example 186, 4-(5-(3-amino-8-azabicyclo[3.2.1]octane-8-yl)-8-(6-fluorobenzo[c] [1,2,5]oxadiazole-5-yl)imidazolo [1,2-c]pyrimidin-7-yl)-2-fluorobenzonitrile]	18	17.3	
Cc1noc2cc(-c3oc(C(=O)N4C5CCC4CC(N)C5)cc3-c3ccc(C#N)c(F)c3)c(F)cc12 (centres unmarked) [Example 219, 4-(5-(3-amino-8-azabicyclo[3.2.1]octane-8-carbonyl)-2-(5-fluoro-3-methylbenzo[d]isoxazol-6-yl)furan-3-yl)-2-fluorobenzonitrile hydrochloride]	95.3		7.3 ± 0.46
COc1ccc(-c2c(O)cc(N3CCC(N)CC3)nc2-c2ccc(C#N)c(F)c2)c(F)c1F [Example 35, 4-(6-(4-aminopiperidin-1-yl)-3-(2,3-difluoro-4-methoxyphenyl)-4-hydroxypyridin-2-yl)-2-fluorobenzonitrile]	31.8	35.7	
N#Cc1ccc(-c2cc(C(=O)N3C4CCC3CC(N)C4)sc2-c2ccccn2)cc1F (centres unmarked) [Example 201, 4-(5-(3-amino-8-azabicyclo [3.2.1]octane-8-carbonyl)-2-(pyridin-2-yl)thiophen-3-yl)-2-fluorobenzonitrile Hydrochloride]	384	26.8	
N#Cc1ccc(-c2cc(C(=O)N3C4CCC3CC(N)C4)sc2-c2cc3[nH]nnc3cc2F)cc1F (centres unmarked) [Example 216, 4-(5-(3-amino-8-azabicyclo [3.2.1]octan-8-carbonyl)-2-(5-fluoro-1H-benzo [d][1,2,3]triazol-6-yl)thio-phen-3-yl)-2-fluorobenzo-nitrile hydrochloride]	20.9	8.14 ± 1.84	
COc1ccc(-c2c(-c3ccc(C#N)nc3)nc(N3C4CCC3CC(N)C4)n3ccnc23)cc1F (centres unmarked) [Example 176, 5-(5-(3-amino-8-azabicyclo[3.2.1]octane-8-yl)-8-(3-fluoro-4-methoxyphenyl)imidazolo[1,2-c]pyrimidin-7-yl) picolinonitrile hydrochloride]	21.6	16.8	
CC(C)(O)Cc1ccc(-c2c(O)cc(N3CCC(N)CC3)nc2-c2ccc(C#N)c(F)c2)c(F)c1 [Example 32, 4-(6-(4-aminopiperidin-1-yl)-3-(2-fluoro-4-(2-hydroxy-2-methylpropyl)phenyl)-4-hydroxypyridin-2-yl)-2-fluorobenzonitrile hydrochloride]	262	48.8	
N#Cc1ccc(-c2nc(N3C4CCC3CC(N)C4)n3ccnc3c2-c2ccc(Cl)c(O)c2)cc1F (centres unmarked) [Example 158, 4-(5-(3-amino-8-azabicyclo[3.2.1]octane-8-yl)-8-(4-chloro-3-hydroxyphenyl)imidazolo[1,2-c]pyrimidin-7-yl)-2-fluorobenzonitrile hydrochloride]	0.763	0.2 ± 0.2	
CNC1CCN(c2cc(O)c(-c3ccc(OC)c(F)c3)c(-c3ccc(C#N)c(F)c3)n2)CC1 [Example 55, 2-fluoro-4-(3-(3-fluoro-4-methoxyphenyl)-4-hydroxy-6-(4-(methylamino)piperidin-1-yl)pyridin-2-yl)benzonitrile]	10 ± 2.9	2.3 ± 0.7	
Cc1ccc(-c2c(-c3ccc(C#N)c(F)c3)nc(N3CC4CC(C3)C4N)n3ccnc23)cc1O (centres unmarked) [Example 165, 4-(5-(6-amino-3-azabicyclo [3.1.1]heptane-3-yl)-8-(3-hydroxy-4-methylphenyl)imidazolo[1,2-c]pyrimidin-7-yl)-2-fluorobenzonitrile]	4.68	3.4 ± 1.5	
COc1ccc(C#Cc2c(O)cc(N3CCC(N)CC3)nc2-c2ccc(C#N)c(F)c2)cc1F [Example 27]	446	77.5	

Continued, in another order:

IC50 (NCI-H1417 cells) [nM]	IC50 (LSD1; HTRF, H3K4me1 substrate) [nM]	SMILES	IC50 (LSD1) [nM]
2.39	0.1 ± 0.03	COc1ccc(-c2sc(N3CCC(N)CC3)nc2-c2ccc(C#N)c(F)c2)cc1O [Example 223, 4-(2-(4-aminopiperidin-1-yl)-5-(3-hydroxy-4-methoxyphenyl)thiazol-4-yl)-2-fluorobenzonitrile]	
31.2	20.3	Cc1noc2cc(-c3c(-c4ccc(C#N)c(F)c4)nc(N(C)CCCN)n4ccnc34)c(F)cc12 [Example 150]	
0.95	0.7 ± 0.4	Cc1ccc(-c2c(-c3ccc(C#N)c(F)c3)nc(N3CCC(N)CC3)c(C)c2O)cc1O [Example 65, 4-(6-(4-aminopiperidin-1-yl)-4-hydroxy-3-(3-hydroxy-4-methylphenyl)-5-methylpyridin-2-yl)-2-fluorobenzonitrile hydrochloride]	
2.39	1 ± 0.5	COc1ccc(-c2c(-c3ccc(C#N)c(F)c3)nc(N3CC4CCC3CC4N)n3ccnc23)cc1O (centres unmarked) [Example 166, 4-(5-(5-amino-2-azabicyclo [2.2.2]octane-2-yl)-8-(3-hydroxy-4-methoxyphenyl)imidazolo[1,2-c]pyrimidin-7-yl)-2-fluorobenzonitrile hydrochloride]	
3.18	8.9 ± 0.3	COc1cc(N2CCN(C)CC2)nc(-c2ccc(C#N)c(F)c2)c1-c1ccc(C)c(O)c1 [Example 100, 2-fluoro-4-(3-(3-hydroxy-4-methylphenyl)-4-methoxy-6-(4-methylpiperazin-1-yl)pyridin-2-yl) benzonitrile]	
17.6	10.7	N#Cc1ccc(-c2nc(N3CCC(N)CC3)n3ccnc3c2-c2ccc(OC(F)(F)F)c(F)c2)cc1F [Example 130, 4-(5-(4-aminopiperidin-1-yl)-8-(3-fluoro-4-(trifluoromethoxy)phenyl)imidazolo [1,2-c]pyrimidin-7-yl)-2-fluorobenzonitrile]	
2.98	140	O=C(c1cc(CN[C@@H]2C[C@H]2c2ccc(F)cc2)nc(-c2ccc(-n3ccnn3)cc2)n1)N1CCC(F)(F)CC1 [Example 248, (2-(4-(1H-1,2,3-triazol-1-yl)phenyl)-6-((((1R,2S)-2-(4-fluorophenyl)cyclo-propyl)amino)methyl)pyrimidin-4-yl)(4,4-difluoropiperidin-1-yl) methanone]	
8	11.5 ± 4.4	CC1(N)CCN(c2nc(-c3ccc(C#N)c(F)c3)c(-c3ccc(F)c(O)c3)c3nccn23)CC1 [Example 147, 4-(5-(4-amino-4-methylpiperidin-1-yl)-8-(4-fluoro-3-hydroxyphenyl)imidazolo[1,2-c]pyrimidin-7-yl)-2-fluorobenzonitrile]	
2.35	0.7 ± 0.3	N#Cc1ccc(-c2nc(N3CCC(N)CC3)cc(O)c2-c2ccc(Cl)c(O)c2)cc1F [Example 59, 4-(6-(4-aminopiperidin-1-yl)-3-(4-chloro-3-hydroxyphenyl)-4-hydroxypyridin-2-yl)-2-fluorobenzonitrile]	
224	21	COc1ccc(-c2c(O)cc(N(C)CCCN)nc2-c2ccc(C#N)c(F)c2)cc1O [Example 62]	
0.76	0.6	N#Cc1ccc(-c2c(-c3ccc(N4CCOCC4)c(O)c3)cnc(N3CCC(N)CC3)c2C#N)cc1F [Example 85, 2-(4-aminopiperidin-1-yl)-4-(4-cyano-3-fluorophenyl)-5-(3-hydroxy-4-morpholinophenyl) nicotinonitrile hydrochloride]	
185	88.5	COc1cc(-c2c(OC)cc(N3CCC(N)CC3)nc2-c2ccc(C#N)c(F)c2)ccc1O [Example 97, 4-(6-(4-aminopiperidin-1-yl)-3-(4-hydroxy-4-methoxyphenyl)-4-methoxypyridin-2-yl)-2-fluorobenzonitrile]	
98.3	285	Cc1noc2cc(-c3nc(CN[C@@H]4C[C@H]4c4ccc(F)cc4)cc(C(=O)N4CCN(S(C)(=O)=O)CC4)n3)c(F)cc12 [Example 235]	
8.9	0.5 ± 0.2	Cc1ccc(-c2c(-c3ccc(C#N)c(F)c3)nc(N(C)CCCN)n3ccnc23)cc1O [Example 146, 4-(5-((3-aminopropyl) (methyl)amino)-8-(3-hydroxy-4-methylphenyl)imidazolo[1,2-c]pyrimidin-7-yl)-2-fluorobenzonitrile]	
4.04	0.29 ± 0.11	CN[C@@H]1CCCN(c2nccn3c(-c4ccc(C)cc4)c(-c4ccc(C#N)cc4)cc23)C1 [Example 189, (R)-4-(1-(3-(methylamino)piperidin-1-yl)-6-(p-tolyl)pyrrolo[1,2-a]pyrazin-7-yl)benzonitrile hydrochloride]	
0.2 ± 0.15	0.4 ± 0.1	COc1ccc(-c2c(-c3ccc(C#N)c(F)c3)nc(N3CCC(N(C)C)CC3)n3ccnc23)cc1O [Example 140, 4-(5-(4 (dimethylamino)piperidin-1-yl)-8-(3-hydroxy-4-methoxyphenyl)imidazolo[1,2-c]pyrimidin-7-yl)-2-fluorobenzonitrile]	
0.648	0.3 ± 0.1	COc1ccc(-c2c(-c3ccc(C#N)c(F)c3)nc(N3CCC(N)CC3)c3ncoc23)cc1O [Example 278, 4-(4-(4-aminopiperidin-1-yl)-7-(3-hydroxy-4-methoxyphenyl)oxazolo[4,5-c]pyridin-6-yl)-2-fluo robenzonitrile]	
6.92	3.4 ± 1.3	COc1ccc(-c2cnc(N3CCC(N)CC3)c(C#N)c2-c2ccc(C#N)c(F)c2)cc1F [Example 68, 2-(4-aminopiperidin-1-yl)-4-(4-cyano-3-fluorophenyl)-5-(3-fluoro-4-methoxyphenyl) nicotinonitrile hydrochloride]	
